In patent publication US12590294B2, “Process for producing cardiomyocytes” (Oxford University Innovation Limited, priority 2020, dated 2026):

Legend:
[1] = tested on: hiPSC derived atrial cardiomyocytes; experiment: Ca2+ transient imaging (Fluo4 optical mapping) with adrenergic agonists and antagonists; assay type: cell-based, human
Procedure: (§1) Optical mapping experiments were carried out after the cells started to contract. The responsiveness of the derived CMs in the experimental group to β and α adrenergic receptor agonists and antagonists was measured. Intracellular calcium transients were analysed using a 128×128 EMCCD camera (Photometrics, Tucson, USA). The derived CMs were pre-loaded with 1 μM Fluo4 (Molecular Probes by Life Technologies) dissolved in DMSO for 15 min at 37° C. in CMM. Calcium transients of the derived CMs were first recorded without the addition of the drugs as control. Recordings were then taken at 0 min, 5 min, 10 min and 15 min after 100 nM Isoprenaline (ISO) treatment. Using the same method, the responsiveness of the derived CMs in the experimental group to 10 μM Phenylephrine (PE) treatment was tested. […] Recordings were taken in the same way as described above. Similarly, the cells were pre-treated with 1 μM Prazosin dissolved in Fluo4 loading solution before a treatment of 10 μM PE. Metamorph was used to take the recordings, and 4000 or 8000 frames were taken for each recording, with a frame rate of 100 Hz (for 4000 frames) or 333.33 Hz (for 8000 frames). Regions of interest were selected using ImageJ. Raw traces were analysed and baseline corrections were conducted using Clampfit. Calcium transient amplitude change was calculated based on averaged trace. Part of the analysis was performed using custom MATLAB algorithms. To calculate beat-to-beat CaT50, the mean signal was segmented into individual beats. Representative regions were defined as two 16 by 16 pixel regions.
as §1, with “β and a adrenergic receptor” for “β and α adrenergic receptor”, “traces were analyzed and baseline” for “traces were analysed and baseline”, “was performed by the collaborator group from University of Birmingham using custom” for “was performed using custom”
We also tested whether hiPSC derived atrial cardiomyocytes responded to adrenoceptor stimulation by a or p adrenoceptor agonists. The presence of a functional al-adrenoceptor signaling pathway was first tested by exposure of hiPSC derived atrial cardiomyocytes to phenylephrine, which in adult atrial CMs increases the amplitude of Ca^2+ transients. Phenylephrine is an al-adrenoceptor agonist coupled to Gq and the mechanism of increase in Ca^2+ transient amplitude is associated with an increase cellular IP3 levels. Atrial cardiomyocytes from Days 25-30 post initiation of differentiating human iPSC derived atrial cardiomyocytes were used to assess the effect of phenylephrine on Ca^2+ transient amplitude. […]

[2] = tested on: monolayer HiPSC-AM sheets; experiment: Optical mapping of monolayer HiPSC-AM sheets, adrenergic stress induced CaT alternans; assay type: cell-based, human; settings: 100 nM ISO; regular pacing at 0.5-1 Hz
Procedure: Optical mapping experiments were carried out after the cells started to contract. The responsiveness of the derived CMs in the experimental group to β and a adrenergic receptor agonists and antagonists was measured. Intracellular calcium transients were analysed using a 128×128 EMCCD camera (Photometrics, Tucson, USA). The derived CMs were pre-loaded with 1 μM Fluo4 (Molecular Probes by Life Technologies) dissolved in DMSO for 15 min at 37° C. in CMM. Calcium transients of the derived CMs were first recorded without the addition of the drugs as control. Recordings were then taken at 0 min, 5 min, 10 min and 15 min after 100 nM Isoprenaline (ISO) treatment. Using the same method, the responsiveness of the derived CMs in the experimental group to 10 μM Phenylephrine (PE) treatment was tested. In adrenergic receptor antagonist tests, the cells were pre-treated with 600 nM CGP20712A (CGP) (Sigma) dissolved in Fluo4 loading solution prior to 100 nM ISO treatment. Recordings were taken in the same way as described above. Similarly, the cells were pre-treated with 1 μM Prazosin dissolved in Fluo4 loading solution before a treatment of 10 μM PE. […] Raw traces were analyzed and baseline corrections were conducted using Clampfit. Calcium transient amplitude change was calculated based on averaged trace. […]

Cn1cc(C(F)(F)F)nc1-c1ccc(OCC(O)CNCCOc2ccc(O)c(C(N)=O)c2)cc1 (centres unmarked) [CGP20712A]
effects of adrenergic stimulation after β-adrenergic antagonist pre-treatment ([1]; 600 nM GCP pre-treated, recorded 10 min after 10 uM PE (so in the source)): abolished
effect on the amplitude of Ca2+ transients, antagonist by itself ([1]; CGP20712A 300 nM alone): no effect

CNC[C@H](O)c1cccc(O)c1 [phenylephrine]
effect on Ca2+ transient decay time ([1]; 10 μM phenylephrine): no effect
effect on Ca2+ transient rise time ([1]; 10 μM phenylephrine): no effect
change in the amplitude of Ca2+ transients in the presence of prazosin ([1]; 10 μM phenylephrine in the presence of prazosin, n=5 batch of cells): did not cause any significant change
increase in Ca2+ transient amplitude ([1]; 10 μM phenylephrine, fluo-4 fluorescence, Days 25-30, n=5 batch of cells): 28±10%

CC(C)NCC(O)c1ccc(O)c(O)c1 (centres unmarked) [isoproterenol]
increase in the amplitude of Ca2+ transients ([1]; isoproterenol 100 nM, n=5 batch of cells): 26±5%
effect on the amplitude of Ca2+ transients when CGP20712A was present ([1]; isoproterenol with CGP20712A (300 nM) present, n=5 batch of cells): without effect
CaT alternans [2]: occurred

COc1cc2nc(N3CCN(C(=O)c4ccco4)CC3)nc(N)c2cc1OC [prazosin]
effect on the amplitude of Ca2+ transients, antagonist by itself ([1]; 1 μM prazosin alone): no effect
effects of adrenergic stimulation by 10 uM PE after antagonist pre-treatment ([1]; 1 uM prazosin pre-treated, recorded 10 min after 10 uM PE): abolished
